Data published in ChEMBL document CHEMBL1154540, “Synthesis of 10-substituted triazolyl artemisinins possessing anticancer activity via Huisgen 1,3-dipolar cylcoaddition” (2009).

Columns and labels:
[1] = test system: DLD-1; assay: Cytotoxicity against human DLD1 cells after 72 hrs by MTT colorimetric assay; format: functional; settings: DLD-1, 72 h
[2] = Cytotoxicity against human U87 cells after 72 hrs by MTT colorimetric assay; format: functional, U-87MG ATCC; settings: U-87 MG
[3] = test system: HeLa; assay: Cytotoxicity against human HeLa cells after 72 hrs by MTT colorimetric assay; format: functional
[4] = Cytotoxicity against human A172 cells after 72 hrs by MTT colorimetric assay; format: functional; settings: A 172, 72 h
[5] = test system: SiHa; assay: Cytotoxicity against human SiHa cells after 72 hrs by MTT colorimetric assay; format: functional
[6] = test system: B16; assay: Cytotoxicity against mouse B16 cells after 72 hrs by MTT colorimetric assay; format: functional; settings: B16, 72 h

Compound | GI50 [1] [nM] | GI50 [2] [nM] | GI50 [3] [nM] | GI50 [4] [nM] | GI50 [5] [nM] | GI50 [6] [nM]
C=C(C)c1cn([C@@H]2O[C@@H]3O[C@@]4(C)CC[C@H]5[C@H](C)CC[C@@H]([C@H]2C)[C@@]35OO4)nn1 | 23000 | 830 | 310 | 1310 | 1130 | 1320
C[C@@H]1[C@@H](n2cc(-c3ccccc3)nn2)O[C@@H]2O[C@@]3(C)CC[C@H]4[C@H](C)CC[C@@H]1[C@@]24OO3 | 29700 | 2860 | 720 | 2500 | 3220 | 8780
COc1ccc(-c2cn([C@@H]3O[C@@H]4O[C@@]5(C)CC[C@H]6[C@H](C)CC[C@@H]([C@H]3C)[C@@]46OO5)nn2)cc1 | 6680 | 1220 | 560 | 1210 | 350 | 900
C[C@H]1[C@H](n2cc(-c3ccc(F)cc3)nn2)O[C@@H]2O[C@@]3(C)CC[C@H]4[C@H](C)CC[C@@H]1[C@@]24OO3 | 140 | 340 | 600 | 420 | 350 | 430
C[C@H]1[C@H](n2cc(-c3cccc(Cl)c3)nn2)O[C@@H]2O[C@@]3(C)CC[C@H]4[C@H](C)CC[C@@H]1[C@@]24OO3 | 14200 | 160 | 80 | 370 | 150 | 60
C[C@H]1[C@@H](N=[N+]=[N-])O[C@@H]2O[C@@]3(C)CC[C@H]4[C@H](C)CC[C@@H]1[C@@]24OO3 | 9440 | 1970 | 490 | 2310 | 1130 | > 50000
C[C@H]1[C@H](N=[N+]=[N-])O[C@@H]2O[C@@]3(C)CC[C@H]4[C@H](C)CC[C@@H]1[C@@]24OO3 | > 50000 | 1060 | 1930 | 890 | 1470 | 1560
Cc1ccc(-c2cn([C@@H]3O[C@@H]4O[C@@]5(C)CC[C@H]6[C@H](C)CC[C@@H]([C@H]3C)[C@@]46OO5)nn2)cc1 | 80 | 110 | 50 | 330 | 150 | 240
CCCCCc1ccc(-c2cn([C@@H]3O[C@@H]4O[C@@]5(C)CC[C@H]6[C@H](C)CC[C@@H]([C@H]3C)[C@@]46OO5)nn2)cc1 | 30 | 80 | 30 | 100 | 90 | 80
C[C@H]1[C@H](n2cc(-c3ccccc3)nn2)O[C@@H]2O[C@@]3(C)CC[C@H]4[C@H](C)CC[C@@H]1[C@@]24OO3 | 12100 | 430 | 210 | 450 | 540 | 1250
C[C@@H]1[C@@H](N=[N+]=[N-])O[C@@H]2O[C@@]3(C)CC[C@H]4[C@H](C)CC[C@@H]1[C@@]24OO3 | > 50000 | 11200 | > 50000 | 16800 | 9070 | > 50000
C[C@H]1[C@H](n2cc(-c3cc(F)cc(F)c3)nn2)O[C@@H]2O[C@@]3(C)CC[C@H]4[C@H](C)CC[C@@H]1[C@@]24OO3 | 22900 | 140 | 140 | 290 | 200 | 160
C[C@H]1[C@@H](n2cc(-c3ccccc3)nn2)O[C@@H]2O[C@@]3(C)CC[C@H]4[C@H](C)CC[C@@H]1[C@@]24OO3 | 520 | 230 | 130 | 220 | 260 | 300
CC(=O)O[C@H]1C(=O)[C@@]2(C)[C@H]([C@H](OC(=O)c3ccccc3)[C@]3(O)C[C@H](OC(=O)[C@H](O)[C@@H](NC(=O)c4ccccc4)c4ccccc4)C(C)=C1C3(C)C)[C@]1(OC(C)=O)CO[C@@H]1C[C@@H]2O [PACLITAXEL] | 10 | 20 | 20 | 10 | 30 | 10
